# Key:
# SK-OV-3 = assay: in vitro ovarian cancer cell growth inhibition (NCI screen)
# K-562 = assay: in vitro leukemia cell growth inhibition (NCI screen)
# UACC-257 = assay: in vitro melanoma cell growth inhibition (NCI screen)
# RXF-393 = assay: in vitro renal cancer cell growth inhibition (NCI screen)
# HT 29 = assay: in vitro colon cancer cell growth inhibition (NCI screen)
# HCT-15 = assay: as above
# UACC-62 = assay: in vitro melanoma cell growth inhibition (NCI screen)
# COLO-205 = assay: in vitro colon cancer cell growth inhibition (NCI screen)
# UO-31 = assay: in vitro renal cancer cell growth inhibition (NCI screen)
# PC-3 = assay: in vitro prostate cancer cell growth inhibition (NCI screen)
# IGROV1 = assay: in vitro ovarian cancer cell growth inhibition (NCI screen)
# ACHN = assay: in vitro renal cancer cell growth inhibition (NCI screen)
# SNB-75 = assay: in vitro CNS cancer cell growth inhibition (NCI screen)
# OVCAR-4 = assay: in vitro ovarian cancer cell growth inhibition (NCI screen); details: OVACR-4
# MCF7/ADR-RES = assay: in vitro breast cancer cell growth inhibition (NCI screen)
# HL-60(TB) = assay: in vitro leukemia cell growth inhibition (NCI screen)
# MOLT-4 = assay: as above
# MDA-MB-435 = assay: in vitro breast cancer cell growth inhibition (NCI screen)
# U 251 = assay: in vitro CNS cancer cell growth inhibition (NCI screen)
# human tumor cell lines = type: cell-based
# NCI-H460 = assay: in vitro non-small cell lung cancer cell growth inhibition (NCI screen)
# MDA-MB-231/ATCC = assay: in vitro breast cancer cell growth inhibition (NCI screen)
# M14 = assay: in vitro melanoma cell growth inhibition (NCI screen)
# MALME-3M = assay: as above
# NCI-H522 = assay: in vitro non-small cell lung cancer cell growth inhibition (NCI screen)
# RPMI-8226 = assay: in vitro leukemia cell growth inhibition (NCI screen)
# OVCAR-3 = assay: in vitro ovarian cancer cell growth inhibition (NCI screen)
# HCC-2998 = assay: in vitro colon cancer cell growth inhibition (NCI screen)
# SK-MEL-5 = assay: in vitro melanoma cell growth inhibition (NCI screen)
# T-47D = assay: in vitro breast cancer cell growth inhibition (NCI screen)
# MDA-N = assay: as above
# CCRF-CEM = assay: in vitro leukemia cell growth inhibition (NCI screen)
# HCT-116 = assay: in vitro colon cancer cell growth inhibition (NCI screen)
# SW 620 = assay: as above
# OVCAR-8 = assay: in vitro ovarian cancer cell growth inhibition (NCI screen)
# NCI-H23 = assay: in vitro non-small cell lung cancer cell growth inhibition (NCI screen)
# MCF-7 = assay: in vitro breast cancer cell growth inhibition (NCI screen)
# BT-549 = assay: as above
# SF-539 = assay: in vitro CNS cancer cell growth inhibition (NCI screen)
# SR = assay: in vitro leukemia cell growth inhibition (NCI screen)
# LOX1MVI = assay: in vitro melanoma cell growth inhibition (NCI screen)
# SK-MEL-2 = assay: as above
# HOP-92 = assay: in vitro non-small cell lung cancer cell growth inhibition (NCI screen)
# TK-10 = assay: in vitro renal cancer cell growth inhibition (NCI screen)
Compound,cytotoxicity log GI50 (SK-OV-3) [M],cytotoxicity log GI50 (UACC-257) [M],cytotoxicity log GI50 (RXF-393) [M],cytotoxicity log GI50 (HT 29) [M],cytotoxicity log GI50 (HCT-15) [M],cytotoxicity log GI50 (UACC-62) [M],cytotoxicity log GI50 (COLO-205) [M],cytotoxicity log GI50 (PC-3) [M],cytotoxicity log GI50 (IGROV1) [M],cytotoxicity log GI50 (MCF7/ADR-RES) [M],cytotoxicity log GI50 (MOLT-4) [M],cytotoxicity log GI50 (MDA-MB-435) [M],cytotoxicity log GI50 (NCI-H460) [M],cytotoxicity log GI50 (MDA-MB-231/ATCC) [M],cytotoxicity log GI50 (M14) [M],cytotoxicity log GI50 (MALME-3M) [M],cytotoxicity log GI50 (NCI-H522) [M],cytotoxicity log GI50 (OVCAR-3) [M],cytotoxicity log GI50 (SK-MEL-5) [M],cytotoxicity log GI50 (MDA-N) [M],further results
"Cc1nc2c(n1CCCl)C(=O)c1ccccc1C2=O [Compound 21, 1-(2'-Chloroethyl)-2-methylnaphth[2,3-d]imidazole-4,9-dione]",-5.28,-4.85,-6.78,-4.80,-5.10,-4.89,-4.85,-5.07,-4.94,-4.79,-4.89,-4.82,-4.83,-4.81,-5.33,-5.24,,,,,cytotoxicity log GI50 (K-562): -4.80 M; cytotoxicity log GI50 (UO-31): -6.22 M; cytotoxicity log GI50 (ACHN): -6.32 M; cytotoxicity log GI50 (SNB-75): -4.84 M; cytotoxicity log GI50 (OVCAR-4): -4.83 M; cytotoxicity log GI50 (HL-60(TB)): -4.79 M; cytotoxicity log GI50 (U 251): -4.90 M; cytotoxicity against tumor cells (in words) (human tumor cell lines; cancer cell line panel): comparable to those of compounds 6-14
CCCc1nc2c(n1CC)C(=O)c1ccccc1C2=O [Compound 24],-4.66,-4.74,,-4.73,-4.55,-4.59,,,-4.57,-4.58,-4.77,-4.76,,,,-4.65,-4.62,-4.49,-4.53,-4.70,"cytotoxicity log GI50 (K-562): -4.51 M; cytotoxicity log GI50 (RPMI-8226): -4.50 M; cytotoxicity log GI50 (OVCAR-4): -4.49 M; cytotoxicity log GI50 (HCC-2998): -4.51 M; cytotoxicity log GI50 (T-47D): -4.55 M; GI50 (human tumor cell lines; Homo sapiens, cancer cell panel, general / most cell lines, read-out: logGI50 values in the cancer cell line panel (converted)): ~10 µM; cytotoxicity log GI50 (CCRF-CEM): -4.61 M"
CCNC1=C(NC(=O)c2ccccc2)C(=O)c2ccccc2C1=O [Compound 47],-4.62,-4.63,-4.62,,-4.73,-4.70,-4.78,-4.74,,-4.78,,-5.14,,-5.21,-4.58,-4.77,-4.95,-4.47,,-5.31,cytotoxicity log GI50 (T-47D): -4.85 M; cytotoxicity log GI50 (HCT-116): -4.59 M; cytotoxicity log GI50 (SW 620): -4.63 M
CCNC1=C(NC(=O)c2ccc(F)cc2)C(=O)c2ccccc2C1=O [Compound 48],-4.73,-4.80,-4.53,-4.65,-4.51,-4.82,-4.58,-4.76,-4.50,-4.56,-4.52,-4.74,,,-4.61,-4.72,-4.68,-4.44,-4.46,-4.47,cytotoxicity log GI50 (OVCAR-8): -4.49 M; cytotoxicity log GI50 (NCI-H23): -4.46 M; cytotoxicity log GI50 (HCC-2998): -4.46 M; cytotoxicity log GI50 (HCT-116): -4.52 M; cytotoxicity log GI50 (MCF-7): -4.52 M; cytotoxicity log GI50 (SW 620): -4.49 M; cytotoxicity log GI50 (CCRF-CEM): -4.45 M
COC(=O)CCCC(=O)NC1=C(NCc2ccccc2)C(=O)c2ccccc2C1=O [Compound 51],,-4.53,,,,-4.53,-4.62,,,-4.56,-4.47,-4.37,,,-4.53,-4.81,,-4.64,,-4.38,cytotoxicity log GI50 (BT-549): -4.54 M; cytotoxicity log GI50 (SF-539): -4.44 M; cytotoxicity log GI50 (HCC-2998): -4.49 M; cytotoxicity log GI50 (HL-60(TB)): -4.54 M; cytotoxicity log GI50 (MCF-7): -4.52 M; cytotoxicity log GI50 (CCRF-CEM): -4.44 M
COC(=O)CCC(=O)NC1=C(Nc2ccc(OC)cc2)C(=O)c2ccccc2C1=O [Compound 56],,-5.37,,,,-5.67,,,,,,-5.69,-5.18,-4.63,-5.22,,,-5.48,-5.75,-5.74,cytotoxicity log GI50 (SR): -5.16 M; cytotoxicity log GI50 (LOX1MVI): -5.41 M; cytotoxicity log GI50 (SK-MEL-2): -5.31 M; cytotoxicity log GI50 (HOP-92): -5.66 M
O=C(O)CCc1nc2c(n1Cc1ccccc1)C(=O)c1ccccc1C2=O [Compound 61],,-4.47,-4.60,,,-4.42,-4.47,,,,,-4.72,-4.42,-4.47,-4.67,,-4.62,-4.55,-4.67,-4.67,cytotoxicity log GI50 (UO-31): -4.51 M; cytotoxicity log GI50 (NCI-H23): -4.52 M; cytotoxicity log GI50 (SF-539): -4.55 M; cytotoxicity log GI50 (TK-10): -4.47 M; cytotoxicity log GI50 (LOX1MVI): -4.57 M; cytotoxicity log GI50 (SK-MEL-2): -4.59 M; cytotoxicity log GI50 (HCT-116): -4.44 M; cytotoxicity log GI50 (SW 620): -4.50 M; cytotoxicity log GI50 (HOP-92): -5.26 M

# From patent publication US5789431A, “Naphthoquinone antitumor compound and method” (The University of North Carolina at Chapel Hill, priority 1996, dated 1998)
